In EP1087941B9, “THIOLESTERS AND USES THEREOF” (THE UNITED STATES OF AMERICA, as represented by THE …, priority 1998, dated 1999):
Like-named read-outs stand apart in the source and are kept apart here.

What was measured:
[1] = molecular target: T1, recombinant HIV-1 protease (Human immunodeficiency virus type 1 group M subtype B, UniProt P03366); assay: HPLC-based protease substrate cleavage assay; format: biochemical; conditions: for IC50: Table 7, high dose test of 100 µM, read-out: Protease I50
T1 construct: Substrate cleavage of recombinant HIV-1 protease
Method: (§1) The 5-bromovaleroyl thioester, compound 44, and two 5-pyridiniovaleroyl thioesters, compounds 45 and 47, were analyzed in mechanistic and target-based assays. […] Assays for activity against HIV-1 reverse transcriptase rAdT (template/primer) and rCdG (template/primer) using recombinant HIV-1 reverse transcriptase (S. Hughes, ABL Basic Research NCI-FCRDC, Frederick MD) were performed as described by Rice (1997) supra. Substrate cleavage of recombinant HIV-1 protease in the presence of test compounds using an HPLC-based methodology with the artificial substrate Ala-Ser-Glu-Asn-Try- Pro-Ile-Val-amide (Multiple Peptide Systems, San Diego CA) was performed as described by Rice (1997) supra. The ability of recombinant HIV-1 integrase (S. Hughes, ABL Basic Research NCI-FCRDC, Frederick MD) to carry out 3' processing and strand transfer activities in the presence of test compounds was performed as described by Buckheit (1994) AIDS Res. Hum. Retroviruses 10:1497-1506, and Turpin (1998) Antimicrob. Agents Chemother. 42: 487-494.

[2] = tested on: fusion of the HL2/3 and MAGI-CCR-5 cells; assay: Fusion assay, HL2/3 and MAGI-CCR-5 co-culture with beta-galactosidase reporter; format: cell-based; conditions: for IC50: Table 7, read-out: Fusion I50
Method: Determination of the effect of the test compounds on viral fusion were carried out as follows. Briefly, HL2/3 cells stably expressing HIV-1 Tat and cell surface gp120 and MAGI-CCR-5 cells stably expressing CD4 and CCR5 on their cell surface, containing a β-galactosidase reporter gene under the control of the HIV-1 LTR were pretreated with test compound for 1 h at 37°C. After incubation, the cells were mixed in a 4 to 1 ratio (2 x 10^5 MAGI-CCR-5 to 8 x 10^5 HL2/3 cells) and co-cultured for 18 h at 37°C; cultures were fixed and stained with X-gal solution for β-galactosidase activity. Blue cells represented the Tat transactivation of the HIV-1 LTR upon fusion of the HL2/3 and MAGI-CCR-5 cells via the CD4/CCR5 co-receptor gp 120 interaction.

[3] = molecular target: T2, recombinant HIV-1 reverse transcriptase (Human immunodeficiency virus type 1 group M subtype B, UniProt P03366); assay: Reverse transcriptase assay with rAdT and rCdG template/primer; format: biochemical; conditions: for IC50: Table 7, high dose test of 100 µM
T2 construct: using recombinant HIV-1 reverse transcriptase; S. Hughes, ABL Basic Research NCI-FCRDC, Frederick MD (supplied, not a catalogue product)
Method: as §1

virus attachment = assay: Cell-based p24 attachment assay; conditions: for IC50: Table 7, high dose test of 100 µM, read-out: Attachment I50
Method: The cell-based p24 attachment assay was performed as described in Rice (1995) Science 270:1194-1197. Viral inactivation assays were carried out as described in Rice (1995) Science 270:1194-1197, and Turpin (1997) supra, with minor modifications. Briefly, MAGI-CCR-5 cells were plated (4 x 10^4 cells per well) in flat bottomed 2-cm well plates for 24 h, after which the culture media was removed and compound-treated virus was added. The virus used was obtained by transient transfection of pNL4-3 into HeLa cells yielding the replication competent NL4-3 virus. Virus containing supernatants were treated for 2 h at 37°C after which residual compound was removed by centrifugation (18,000 x g, 1h, 4°C). Virus pellets were resuspended and placed on the MAGI-CCR-5 monolayers and cultured for 48 h. Monolayers were fixed and stained with X-gal solution and blue cells counted.

U1 cells = assay: Cell viability of TNFα-induced U1 cells; format: cell-based; conditions: for cellular toxicity: high test dose of 100 µM; for toxicity: higher dose testing (300 µM)
Method: Thiolester compounds were also tested for their ability to inhibit HIV-1 replication in TNFα-induced U1 and ACH-2 cells. U1 cells were induced with 5 ng/ml of TNFα in the presence of various concentrations of the thiolesters 44, 45 or 47. Forty-eight hours later the cultures were characterized for virus p24 antigen production and cell viability. […] Compound 44 killed 60% of the cells at 200 µM. […] Precursor processing evaluation performed as described by Turpin (1997) Antiviral Chem. Chemother. 8:60-69. Thus, thiolester PATEs initiate intracellular disulfide cross-linking of precursor polyproteins during late phase virus assembly and mediate a direct virucidal effect via an attack on the mature NCp7 retroviral zinc fingers in the cell-free virus.

CEM-SS cells = assay: cells; format: cell-based
Description: One exemplary means to determine antiviral activity is with CEM-SS cells and virus (e.g., HIV-1RF) (MOI = 0.01) using the XTT (2,3-bis[2-methoxy- 4-nitro-5-sulfophenyl] -5- [(phenylamino)carbonyl]-2H-tetrazolium hydroxide) cytoprotection assay, as described by Rice (1993) PNAS 90:9721-9724, and Rice (1997) Antimicrob. Agents Chemother. 41:419-426. Briefly, cells are infected with HIV-1RF (or other virus to be tested) in the presence of various dilutions of test compounds (thiolesters and controls). The cultures are incubated for seven days. During this time control cultures without protective compounds (i.e., compounds with anti-viral activity) replicate virus, induce syncytia, and result in about 90% cell death. The cell death is measured by XTT dye reduction. XTT is a soluble tetrazolimn dye that measures mitochondrial energy output, similar to MTT. Positive controls using dextran sulfate (an attachment inhibitor) or 3'-Azido -2'-3'-dideoxythymidine, AZT (a reverse transcriptase inhibitor) are added to each assay. Individual assays are done in duplicate using a sister plate method.
Effective antiviral concentrations providing 50% cytoprotection (EC50), and cellular growth inhibitory concentrations causing 50% cytotoxicity (IC50) are calculated.

[4] = rAdT template/primer, read-out: Reverse transcriptase rAdT I50
[5] = rCdG template/primer, read-out: Reverse transcriptase rCdG I50
[6] = Homo sapiens, CEM-SS, Table 5, 50% cytotoxicity, read-out: Antiviral Activity IC50%
[7] = Homo sapiens, CEM-SS, Table 6, 50% cytotoxicity, read-out: Antiviral Activity IC50

SMILES: O=C(CCCC[n+]1ccccc1)Sc1ccccc1C(=O)Nc1ccc(S(=O)(=O)c2ccc([N+](=O)[O-])cc2)cc1 [Compound 47]
- inhibition of HIV-1 protease enzyme activity [1]: did not inhibit
- inhibition of fusion to host cells [2]: did not inhibit
- IC50 [2]: 99 µM
- inhibition of HIV-1 reverse transcriptase enzyme activity [3]: did not inhibit
- inhibition of virus attachment (virus attachment): did not inhibit
- IC50 (virus attachment): > 100 µM
- cellular toxicity (U1 cells): No cellular toxicity was evident
- toxicity (U1 cells): no toxicity
- IC50 (CEM-SS cells; Homo sapiens, CEM-SS, read-out: Antiviral Activity IC50): > 316 µM

SMILES: CC(=O)NS(=O)(=O)c1ccc(NC(=O)c2ccccc2SC(=O)CCCC[n+]2ccccc2)cc1 [Compound 45, N-[2-(5-pyridinio-valeroylthio)benzoyl]sulfacetamide bromide]
- inhibition of HIV-1 protease enzyme activity [1]: did not inhibit
- IC50 [1]: > 100 µM
- inhibition of fusion to host cells [2]: did not inhibit
- IC50 [2]: 77 µM
- inhibition of HIV-1 reverse transcriptase enzyme activity [3]: did not inhibit
- IC50 [3, 4]: > 100 µM
- IC50 [3, 5]: > 100 µM
- inhibition of virus attachment (virus attachment): did not inhibit
- IC50 (virus attachment): > 100 µM
- cellular toxicity (U1 cells): No cellular toxicity was evident
- toxicity (U1 cells): no toxicity
- IC50 (CEM-SS cells; [6]): > 316 µM
- IC50 (CEM-SS cells; [7]): > 316 µM
- IC50 (CEM-SS cells; Table 10, 50% cytotoxicity, read-out: Antiviral Activity IC50%): > 316 µM
- toxicity at the high test dose (CEM-SS cells; high test dose of 316 µM): no toxicity

SMILES: CC(=O)NS(=O)(=O)c1ccc(NC(=O)c2ccccc2SC(=O)CCCCBr)cc1 [Compound 44, N-[2-(5-bromovaleroylthio)benzoyl]sulfacetamide]
- inhibition of HIV-1 protease enzyme activity [1]: did not inhibit
- IC50 [1]: > 100 µM
- inhibition of fusion to host cells [2]: did not inhibit
- IC50 [2]: > 100 µM
- inhibition of HIV-1 reverse transcriptase enzyme activity [3]: did not inhibit
- IC50 [3, 4]: > 100 µM
- IC50 [3, 5]: > 100 µM
- inhibition of virus attachment (virus attachment): did not inhibit
- IC50 (virus attachment): > 100 µM
- cells killed (U1 cells; at 200 µM): 60%
- cellular toxicity (U1 cells): No cellular toxicity was evident
- IC50 (CEM-SS cells; [6]): 184 µM
- IC50 (CEM-SS cells; [7]): 184 µM
